The text below walks through data of patent US10865216B2, “Tricyclic Gyrase inhibitors” (MERCK SHARP & DOHME CORP., priority 2012, dated 2020).

The term MIC denotes the least concentration at which growth counts as inhibited.

Molecules are shown by their SMILES. Values after ≈ are worked out from the molar mass of the structure shown.

One assay concerns S. aureus ATCC 13709. Put plainly: MIC, S. aureus ATCC 13709. The assay is classed as cell-based. As to conditions: Alamar Blue read after overnight incubation at 35° C.; for MIC Sa: S. aureus; for MIC: Staphylococcus aureus, ATCC13709, S. aureus, read-out: MIC Sa. On the technique in general: Alamar Blue is a resazurin reagent that responds to reducing activity.
The next assay deals with E. coli ATCC 25922. Description: MIC, E. coli ATCC 25922. To be noted: Alamar Blue read after overnight incubation at 35° C.; for MIC Ec: E. coli; for MIC: Escherichia coli, ATCC25922, E. coli, read-out: MIC Ec. It counts as cell-based.

Take `COc1cccc2c1[nH]c1nc(Oc3cccc(C#N)c3)nc(N3CC4C(N)C4C3)c12` (centres unmarked) [Compound 2.12]: in the assay on S. aureus ATCC 13709, the “MIC Sa” value amounted to 16 µg/mL (≈ 38.8 µM). Besides, the “MIC Ec” value in the assay with E. coli ATCC 25922 was greater than 64 µg/mL.

Consider `COc1cccc2c1[nH]c1nc(Oc3cncnc3)nc(N3CC4C(N)C4C3)c12` (centres unmarked) [Compound 2.13], for which the “MIC Sa” value against S. aureus ATCC 13709 is 2 µg/mL (≈ 5.14 µM). Further, in the assay with E. coli ATCC 25922, the “MIC Ec” value was determined as 64 µg/mL (≈ 164 µM).

Regarding `COc1cccc2c1[nH]c1nc(Oc3cnc4cccnc4c3)nc(N3CC4C(N)C4C3)c12` (centres unmarked) [Compound 2.14], the “MIC Sa” value against S. aureus ATCC 13709 was 1 µg/mL (≈ 2.28 µM). For the same molecule, in the assay on E. coli ATCC 25922, the “MIC Ec” value was greater than 64 µg/mL.

As to `COc1cccc2c1[nH]c1nc(Oc3cccc(C#N)c3)nc(N3CC4C(N)C4C3)c12` (centres unmarked) [Compound 2.15], the “MIC Sa” value against S. aureus ATCC 13709 worked out at 1 µg/mL (≈ 2.42 µM). In addition, in the assay on E. coli ATCC 25922, the “MIC Ec” value was greater than 32 µg/mL.

Consider `Cc1ncc(Oc2nc(N3CC4CC3C[C@H]4N)c3c(n2)[nH]c2c(N)cc(F)cc23)cn1` (some centres unmarked) [Compound 2.16], for which the minimal inhibitory concentration (MIC) amounted to 8 µg/mL (≈ 19 µM) in the assay with S. aureus ATCC 13709 and 16 µg/mL (≈ 38.1 µM) in the assay on E. coli ATCC 25922.

In the case of `CNc1cccc2c1[nH]c1nc(Oc3cncnc3)cc(N3CC4CC4(N)C3)c12` (centres unmarked) [Compound 3.1], the minimal inhibitory concentration (MIC) in the assay with S. aureus ATCC 13709 stood at 1 µg/mL (≈ 2.58 µM); in the assay with E. coli ATCC 25922, 4 µg/mL (≈ 10.3 µM).

For the molecule `CNc1cccc2c1[nH]c1nc(Oc3cncc(C#N)c3)cc(N3CC[C@@H](N)C3)c12` [Compound 3.3], the MIC was determined as 0.5 µg/mL (≈ 1.25 µM) with S. aureus ATCC 13709 and 1 µg/mL (≈ 2.5 µM) with E. coli ATCC 25922.

As for `CNc1cccc2c1[nH]c1nc(Oc3cncnc3)cc(N3CC[C@@H](N)C3)c12` [Compound 3.4], the MIC was 0.5 µg/mL (≈ 1.33 µM) in the assay on S. aureus ATCC 13709 and no more than 0.5 µg/mL in the assay with E. coli ATCC 25922.

On to `CNc1cccc2c1[nH]c1nc(Oc3cnc(C)nc3)cc(N3CC[C@@H](N)C3)c12` [Compound 3.5], for which the MIC is 0.25 µg/mL (≈ 0.642 µM) in the assay with S. aureus ATCC 13709 and no more than 0.5 µg/mL with E. coli ATCC 25922.

Take `CNc1cccc2c1[nH]c1nc(Oc3cncc(F)c3)cc(N3CC[C@@H](N)C3)c12` [Compound 3.6]: the MIC was determined as 0.5 µg/mL (≈ 1.27 µM) in the assay on S. aureus ATCC 13709 and 1 µg/mL (≈ 2.55 µM) with E. coli ATCC 25922.

Take `CNc1cccc2c1[nH]c1nc(Oc3cncc(F)c3)cc(N3CC4CNC4C3)c12` (centres unmarked) [Compound 3.7]: the MIC with S. aureus ATCC 13709 was 1 µg/mL (≈ 2.47 µM); in the assay with E. coli ATCC 25922, 4 µg/mL (≈ 9.89 µM).

In the case of `CNc1cccc2c1[nH]c1nc(Oc3cncnc3)cc(N3CC(N)C(O)C3)c12` (centres unmarked) [Compound 3.8], the figures for the MIC in the assay on S. aureus ATCC 13709 and with E. coli ATCC 25922 were 16 µg/mL (≈ 40.9 µM) and greater than 64 µg/mL, respectively.

For `CNc1cccc2c1[nH]c1nc(Oc3cncnc3)cc(-c3cn[nH]c3)c12` [Compound 3.9], the MIC with S. aureus ATCC 13709 amounted to 2 µg/mL (≈ 5.6 µM); in the assay with E. coli ATCC 25922, 32 µg/mL (≈ 89.5 µM).

In the case of `CNc1cccc2c1[nH]c1nc(Oc3cnc(C)nc3)cc(N3CC[C@@H](NCCC#N)C3)c12` [Compound 3.10], the MIC with S. aureus ATCC 13709 was 32 µg/mL (≈ 72.3 µM); in the assay with E. coli ATCC 25922, greater than 64 µg/mL.

Consider `CNc1cccc2c1[nH]c1nc(Oc3cnc(C)nc3)cc(N3CC4C(C3)C4NCCC#N)c12` (centres unmarked) [Compound 3.11], for which the results for the MIC with S. aureus ATCC 13709 and in the assay on E. coli ATCC 25922 were no more than 0.5 µg/mL and 2 µg/mL (≈ 4.4 µM), respectively.

For `CNc1cccc2c1[nH]c1nc(Oc3cncnc3)cc(N3C[C@H](NCC4CC4)C4(CC4)C3)c12` [Compound 3.12], the MIC in the assay on S. aureus ATCC 13709 stood at 1 µg/mL (≈ 2.2 µM); with E. coli ATCC 25922 it was 8 µg/mL (≈ 17.6 µM).

Regarding `CNc1cccc2c1[nH]c1nc(Oc3cncnc3)cc(N3CC4C(C3)C4NCC3CC3)c12` (centres unmarked) [Compound 3.13], the results for the MIC in the assay on S. aureus ATCC 13709 and with E. coli ATCC 25922 were no more than 0.5 µg/mL and 1 µg/mL (≈ 2.26 µM), respectively.

Turning to `CNc1cccc2c1[nH]c1nc(Oc3cnc(C)nc3)cc(N3CC4C(C3)C4NCC3CC3)c12` (centres unmarked) [Compound 3.14], the MIC in the assay on S. aureus ATCC 13709 is no more than 0.5 µg/mL; with E. coli ATCC 25922, 2 µg/mL (≈ 4.39 µM).

In the case of `CNc1cccc2c1[nH]c1nc(Oc3cncnc3)cc(N3CC4CCC(N)C4C3)c12` (centres unmarked) [Compound 3.15], the MIC with S. aureus ATCC 13709 stood at 1 µg/mL (≈ 2.41 µM); in the assay with E. coli ATCC 25922, 8 µg/mL (≈ 19.3 µM).

Consider `CNc1cccc2c1[nH]c1nc(Oc3cncnc3)cc(N3CCC[C@@H](N)C3)c12` [Compound 3.16], for which the MIC in the assay on S. aureus ATCC 13709 and in the assay with E. coli ATCC 25922 was 4 µg/mL (≈ 10.3 µM) in each case.

Turning to `CNc1cccc2c1[nH]c1nc(Oc3cncnc3)cc(N3CCC(C(N)=O)C3)c12` (centres unmarked) [Compound 3.17], the values for the MIC with S. aureus ATCC 13709 and with E. coli ATCC 25922 were 2 µg/mL (≈ 4.96 µM) and greater than 16 µg/mL, respectively.

Regarding `CNc1cccc2c1[nH]c1nc(Oc3cncnc3)cc(N3CC4C(C3)C4NC(=O)CN)c12` (centres unmarked) [Compound 3.18], the results for the minimal inhibitory concentration (MIC) in the assay with S. aureus ATCC 13709 and in the assay on E. coli ATCC 25922 were 4 µg/mL (≈ 9 µM) and greater than 16 µg/mL, respectively.
